Read-outs that look alike come from different tables or passages of the source.
How the values were obtained:
[1] = tested on: human peripheral blood mononuclear cell (PBMC) derived monocytes; test: Endotoxin-induced TNF production in monocyte/fibroblast cultures (ELISA); type: cell-based; conditions: LPS 1 ug/ml, FIG. 5
Protocol: Hydroxychloroquine (Sigma Aldrich) was diluted at the concentrations indicated. Levels of tumor necrosis factor (TNF) were assessed by ELISA.

healthy rats = conditions: 500 ng intra-tracheally; within 5 hours; versus saline-treated control rats; cited from earlier work
neutrophils = conditions: cited from earlier work; for neutrophil apoptosis: 100 ng/mL

Compound	production of TNF-alpha from macrophages [1]	lung lavage neutrophils (healthy rats)	lung leak (healthy rats)	lung myeloperoxidase (MPO) activity (healthy rats)	neutrophil apoptosis (neutrophils; at 4-8 h)	neutrophil apoptosis (neutrophils; at 24 h)	levels of IL-8 (neutrophils; PMN cultured for 24 h)
CCN(CCO)CCCC(C)Nc1ccnc2cc(Cl)ccc12 (stereo not shown) [hydroxychloroquine]	suppressed production of TNF-alpha	–	–	–	–	–	–
TNF-alpha	–	substantially higher	substantially higher	substantially higher	increased	markedly suppressed	markedly increased
